# Assay: UV absorption spectrum (λmax, E1%) of the UV filter compounds
# Format: physicochemical
# Conditions: for E1%: at main λmax; for E1% (shoulder): at shoulder; for λmax: main maximum
E1% (UV (CH2Cl2)),E1% (shoulder) (UV (CH2Cl2)),λmax (UV (CH2Cl2)),λmax (shoulder) (UV (CH2Cl2)),Structure (SMILES),E1% (UV (Ethanol)),E1% (shoulder) (UV (Ethanol)),λmax (UV (Ethanol)),λmax (shoulder) (UV (Ethanol))
1367,1298,366 nm,358 nm,"C#CCN(C)C=CC=C(C(=O)OCC)S(=O)(=O)c1ccccc1 [ethyl-5-[methyl(prop-2-ynyl)amino]-2-(phenylsulfonyl)penta-2,4-dienoate]",–,–,–,–
–,–,–,–,COC(=O)/C(=C\C=C\N(C)CCC[Si](C)(O[Si](C)(C)C)O[Si](C)(C)C)S(=O)(=O)c1ccc(C)cc1 [Example 1],1154,773,372 nm,356 nm
1346,1031,370 nm,356 nm,"C=CCN(C)C=CC=C(C(=O)OC)S(=O)(=O)c1ccc(C)cc1 [methyl-5-[allyl(methyl)amino]-2-[(4-methylphenyl)sulfonyl]penta-2,4-dienoate]",–,–,–,–

# — patent US7510703B2, “UV-photoprotecting/sunscreen compositions comprising silane/siloxane derivatives of merocyanine sulfones” (L'Oreal, priority 2004, dated 2009)
